Data as given in PMC5512541 (Science translational medicine, 2016).
Read-outs that look alike come from different tables or passages of the source.

How the values were obtained:
[1] = mouse interstitial fluid (ISF); endogenous Aβ; ref [8], [9]; cited from earlier work
[2] = human cerebrospinal fluid (CSF); endogenous Aβ; ref [8], [9]; cited from earlier work
ISF Aβ40 and Aβ42 = experiment: In vivo microdialysis of hippocampal ISF Aβ after γ-secretase inhibitor; parameters: species or system mouse; conditions: APP/PS1 and APP/PS1; nExt1CKO mice, 3-4 months; LY411575 5 mg/kg intraperitoneally; hippocampal microdialysis samples every 60 min for 6 hr; ELISA
amyloid pathology = conditions: administration in a mouse model of AD; ref [65]; cited from earlier work

Q: For amyloid-β [Aβ], which “half-life in the brain” value [1] is on record?
A: The value was 1 to 2 h.

Q: And the “half-life in the brain” value [2]?
A: Its value is ~ 8 hours.

Q: For C[C@H](NC(=O)[C@@H](O)c1cc(F)cc(F)c1)C(=O)N[C@@H]1C(=O)N(C)c2ccccc2-c2ccccc21 [γ-secretase inhibitor, LY411575], which “ISF Aβ40 and Aβ42 concentration after treatment” value (ISF Aβ40 and Aβ42) is on record?
A: The value was “gradually decreased in a time-dependent manner”.

Q: With low-molecular-weight heparin as the compound, how does the “effect on amyloid pathology” value (amyloid pathology) read?
A: Its value is “reduced amyloid pathology”.
